According to patent US20140271723A1 (priority 2013, published 2014):

Tested on: pseudorabies virus (PRV)
Parameters: species or system pigs
Conditions: pig, in vivo

KKSVRGKGKGQKRKRKKSRYKSWSV [VEGF peptide]
protection from mortality caused by challenge with virulent PRV: protected the animals from mortality

YVRVRRPPKGKHRKFKHTH [PDGF peptide]
protection from mortality caused by challenge with virulent PRV: protected the animals from mortality
